The supplement of paper PMC10307832

What was measured:
Assay in all cases: relative viability (nuclei count vs DMSO), 5 days (fraction); higher = more cells survive
[1] = compound: NCC(=O)Nc1ccc(-n2nc(C(F)(F)F)cc2-c2ccc3c(ccc4ccccc43)c2)cc1 + CS(=O)(=O)CCNCc1ccc(-c2ccc3ncnc(Nc4ccc(OCc5cccc(F)c5)c(Cl)c4)c3c2)o1 [Lapatinib] (partner 2 µM)
How it was run: (§1)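 Relative viability is defined as nuclei in treated wells over nuclei in vehicle wells. Duplicate plates were run and medians reported. Lung cancer cell lines in 1536-well plates were dosed by pin tool one day after seeding, with one drug or with a fixed anchor-drug dose plus five library-drug doses (not always all listed) in √10 steps, and nuclei were counted after 5 days.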

[2] = compound: C1CSC2=C(C(=O)N1)SC3=C2C=C(C=C3)O [kb NB 142-70] + CS(=O)(=O)N1CCN(Cc2cc3nc(-c4cccc5[nH]ncc45)nc(N4CCOCC4)c3s2)CC1 [Pictilisib] (partner 1 µM)
How it was run: as §1

[3] = compound: NCC(=O)Nc1ccc(-n2nc(C(F)(F)F)cc2-c2ccc3c(ccc4ccccc43)c2)cc1 + N=C(N)NC(=N)NCCc1ccccc1 [Phenformin] (partner 250 µM)
How it was run: as §1

[4] = compound: NCC(=O)Nc1ccc(-n2nc(C(F)(F)F)cc2-c2ccc3c(ccc4ccccc43)c2)cc1 + NC(=O)Nc1cc(-c2cccc(F)c2)sc1C(=O)N[C@H]1CCCNC1 [AZD7762] (partner 0.2 µM)
How it was run: as §1

Row | Cell Line | relative viability ([1]; first compound 0.02 µM) | relative viability ([1]; first compound 0.06325 µM) | relative viability ([1]; first compound 0.2 µM) | relative viability ([1]; first compound 0.6325 µM) | relative viability ([1]; first compound 2 µM) | relative viability ([2]; first compound 0.1 µM) | relative viability ([2]; first compound 1 µM) | relative viability ([2]; first compound 3.162 µM) | relative viability ([3]; first compound 0.02 µM) | relative viability ([3]; first compound 0.06325 µM) | relative viability ([3]; first compound 0.2 µM) | relative viability ([3]; first compound 0.6325 µM) | relative viability ([3]; first compound 2 µM) | relative viability ([4]; first compound 0.02 µM) | relative viability ([4]; first compound 0.06325 µM) | relative viability ([4]; first compound 0.2 µM) | relative viability ([4]; first compound 0.6325 µM) | relative viability ([4]; first compound 2 µM)
1 | NCI-H596 | 1.13 | 1.09 | 1.11 | 1.09 | 1.19 | 0.399 | 0.351 | 0.352 | 0.72 | 0.877 | 0.841 | 0.721 | 0.728 | 1.14 | 1.03 | 0.984 | 1.28 | 1.08
2 | NCI-H322M | 0.617 | 0.62 | 0.681 | 0.561 | 0.558 | 0.54 | 0.561 | 0.504 | 0.808 | 0.739 | 0.766 | 0.747 | 0.811 | 0.569 | 0.711 | 0.578 | 0.636 | 0.681
3 | NCI-H647 | 1.2 | 1.07 | 1.21 | 0.953 | 0.631 | 0.497 | 0.474 | 0.408 | 0.451 | 0.576 | 0.629 | 0.463 | 0.558 | 0.384 | 0.39 | 0.524 | 0.431 | 0.527
4 | NCI-H2170 | 0.278 | 0.285 | 0.277 | 0.286 | 0.288 | 0.299 | 0.275 | 0.227 | 0.397 | 0.446 | 0.429 | 0.438 | 0.457 | 0.87 | 0.907 | 0.94 | 0.911 | 0.86
5 | NCI-H2085 | 0.718 | 0.78 | 0.742 | 0.813 | 0.818 | 0.486 | 0.53 | 0.398 | 0.689 | 0.786 | 0.652 | 0.702 | 0.72 | 0.943 | 1.03 | 1.04 | 1.06 | 1.04
6 | NCI-H727 | 1.02 | 0.968 | 0.655 | 0.917 | 0.9 | 0.425 | 0.469 | 0.346 | 0.63 | 0.606 | 0.561 | 0.41 | 0.728 | 0.531 | 0.53 | 0.58 | 0.696 | 0.599
7 | LOU-NH91 | 0.848 | 0.678 | 0.781 | 0.797 | 0.767 | 0.526 | 0.505 | 0.41 | 0.652 | 0.748 | 0.686 | 0.671 | 0.778 | 0.799 | 0.783 | 0.784 | 0.804 | 0.795
8 | NCI-H3122 | 1.08 | 1.05 | 1.01 | 0.988 | 0.934 | 0.578 | 0.649 | 0.551 | 0.37 | 0.432 | 0.364 | 0.386 | 0.377 | 0.897 | 0.983 | 1 | 1.01 | 0.969
9 | NCI-H460 | 0.965 | 0.956 | 0.991 | 0.845 | 0.576 | 0.363 | 0.323 | 0.274 | 0.482 | 0.504 | 0.505 | 0.537 | 0.458 | 0.773 | 0.684 | 0.633 | 0.623 | 0.643
10 | NCI-H650 | 0.665 | 1.06 | 0.934 | 0.87 | 1.25 | 1.05 | 0.94 | 0.756 | 0.422 | 0.44 | 0.48 | 0.379 | 0.474 | 0.988 | 1.12 | 1.08 | 1.02 | 1.05
11 | NCI-H1793 | 0.659 | 0.684 | 0.743 | 0.886 | 0.84 | 0.313 | 0.379 | 0.386 | 0.258 | 0.376 | 0.412 | 0.392 | 0.422 | 0.434 | 0.568 | 0.573 | 0.447 | 0.742
12 | NCI-H1734 | 1.05 | 1.01 | 1.15 | 1.03 | 0.853 | 0.429 | 0.432 | 0.363 | 0.421 | 0.365 | 0.414 | 0.422 | 0.395 | 0.52 | 0.556 | 0.565 | 0.515 | 0.611
13 | LXF-289 | 0.953 | 0.953 | 0.916 | 0.891 | 0.887 | 0.739 | 0.737 | 0.749 | 0.516 | 0.527 | 0.494 | 0.506 | 0.56 | 1.14 | 1.13 | 1.01 | 1.12 | 1.06
14 | H3255 | 0.276 | 0.268 | 0.231 | 0.258 | 0.268 | 0.469 | 0.45 | 0.437 | 0.343 | 0.341 | 0.364 | 0.334 | 0.435 | 0.853 | 0.914 | 0.959 | 0.974 | 0.898
15 | 201T | 1.04 | 1.07 | 0.996 | 1.08 | 1.04 | 0.683 | 0.649 | 0.698 | 0.448 | 0.489 | 0.408 | 0.466 | 0.446 | 0.599 | 0.657 | 0.625 | 0.656 | 0.601
16 | NCI-H2126 | 0.792 | 0.763 | 0.787 | 0.793 | 0.751 | 0.519 | 0.479 | 0.515 | 0.515 | 0.559 | 0.5 | 0.518 | 0.539 | 0.969 | 1.12 | 1.02 | 1.01 | 1.01
17 | HOP-62 | 1.06 | 0.913 | 0.998 | 0.959 | 1.14 | 0.736 | 0.606 | 0.73 | 0.683 | 0.7 | 0.644 | 0.608 | 0.735 | 0.646 | 0.482 | 0.693 | 0.566 | 0.711
18 | CAL-12T | 0.671 | 0.823 | 0.672 | 0.709 | 0.679 | 0.563 | 0.451 | 0.344 | 0.572 | 0.601 | 0.586 | 0.576 | 0.627 | 0.739 | 0.622 | 0.718 | 0.669 | 0.588
19 | NCI-H1755 | 1.01 | 1 | 1.07 | 1.02 | 1.06 | 0.462 | 0.504 | 0.431 | 0.582 | 0.587 | 0.577 | 0.606 | 0.607 | 0.448 | 0.569 | 0.448 | 0.394 | 0.449
